≈ marks a conversion by molar mass, not a printed value.
Experiments:
[1] = test system: H9 (acute lymphoblastic leukemia, ALL); test: MTT growth inhibition of leukemia cells, 72 h; type: cell-based, human; conditions: Homo sapiens, H9, 72 h; for IC50: read-out: IC50; for IC90: read-out: IC90
Source text: (§1) Leukemia cell lines: leukemia cell lines: K562/adr (drug-resistant, chronic myeloid leukemia, CML), NB4 (acute promyelocytic leukemia, AML), Kasumi-1 (acute myeloid leukemia M2 type, AML-M2), and Jurkat (acute lymphoblastic leukemia, ALL), all of which are donated by Cancer Research Institute of Zhejiang University, China; and H9 (acute lymphoblastic leukemia, ALL), which is purchased from China Center for Type Culture Collection (CCTCC).
(§2) The standard sample of tanshinone I (TA) and the 2-aminated methylene or 2-esterified methylene tanshinone I derivatives of the present invention are sufficiently dissolved with dimethylsulfoxide to produce a stock solution of 10 mg/mL, which is refrigerated at 4° C. and stored in dark, and is diluted with a cell culture medium to the desired concentration prior to experimentation.
(§3) Obtaining 6000 well-growing leukemia cells and inoculating them into wells of a 96-well cell culture plate. The culture medium is the RPMI-1640 cell culture medium containing 10% fetal bovine serum. After adding on the second day the 2-aminated methylene or 2-esterified methylene tanshinone I derivatives of different concentrations and mixing uniformly, placing the plate in a carbon dioxide cell incubator (5% CO2) at 37° C. and incubated for 72 hours. Then the viable cell concentration is determined by MTT method.

[2] = test system: K562/adr (drug-resistant, chronic myeloid leukemia, CML); test: MTT growth inhibition of leukemia cells, 72 h; type: cell-based, human; conditions: Homo sapiens, K562/Adr; for IC50: read-out: IC50; for IC90: read-out: IC90
Source text: as §1, §2, §3

[3] = test system: NB4 (acute promyelocytic leukemia, AML); test: MTT growth inhibition of leukemia cells, 72 h; type: cell-based, human; conditions: Homo sapiens, NB4, 72 h; for IC50: read-out: IC50; for IC90: read-out: IC90
Source text: as §1, §2, §3

[4] = test system: Jurkat (acute lymphoblastic leukemia, ALL); test: MTT growth inhibition of leukemia cells, 72 h; type: cell-based, human; conditions: Homo sapiens, 72 h; for IC50: read-out: IC50; for IC90: read-out: IC90
Source text: as §1, §2, §3

[5] = test system: Kasumi-1 (acute myeloid leukemia M2 type, AML-M2); test: MTT growth inhibition of leukemia cells, 72 h; type: cell-based, human; conditions: Homo sapiens, Kasumi-1, 72 h; for IC50: read-out: IC50; for IC90: read-out: IC90
Source text: as §1, §2, §3

[6] = test system: Hep-2 (laryngeal carcinoma); test: MTT growth inhibition of human solid tumor cells, 72 h; type: cell-based; conditions: Homo sapiens, HEp-2, 72 h; for IC50: read-out: IC50; for IC90: read-out: IC90
Protocol: (§4) Hep-2 (laryngeal carcinoma), A549 (human lung cancer), CaES-17 (esophageal cancer cell), PC-3 (prostate cancer), CNE (nasopharyngeal carcinoma cell), and SK-OV-3 (ovarian cancer cell), all of which are purchased from China Center For Type Culture Collection; RKO (human colon adenocarcinoma cell), MGC 803 (human gastric cancer cell), MG63 (osteosarcoma) and U87 MG (malignant glioma cell), all of which are purchased from Fuxiang Bio-tech Co. Ltd., Shanghai, China; PANC-1 (pancreatic cancer), Hep G2 (human liver cancer cell), Becap37 (human breast cancer cell) and Hela (human cervical cancer cell), all of which are donated by Cancer Research Institute of Zhejiang University, China.
as §2
(§5) Obtaining 4000 well-growing human solid tumor cells and inoculating them into wells of a 96-well cell culture plate. The culture medium is DMEM High Glucose cell culture medium containing 10% fetal bovine serum. The plate is placed in a carbon dioxide cell incubator (5% CO2) at 37° C. and incubated for 24 hours. After adding the 2-aminated methylene or 2-esterified methylene tanshinone I derivatives of different concentrations and mixing uniformly, the plate is placed in a carbon dioxide cell incubator (5% CO2) at 37° C. and incubated for 72 hours. Then the viable cell concentration is determined by the MTT method.

[7] = test system: Hep G2 (human liver cancer cell); test: as above; type: cell-based; conditions: Homo sapiens, HepG2, Hep G2, 72 h; for IC50: read-out: IC50; for IC90: read-out: IC90
Protocol: as §4, §2, §5

[8] = test system: U87 MG (malignant glioma cell); test: as above; type: cell-based; conditions: Homo sapiens, U-87 MG, U87-MG, 72 h; for IC50: read-out: IC50; for IC90: read-out: IC90
Protocol: as §4, §2, §5

[9] = test system: A549 (human lung cancer); test: as above; type: cell-based; conditions: Homo sapiens, A549, 72 h; for IC50: read-out: IC50; for IC90: read-out: IC90
Protocol: as §4, §2, §5

[10] = test system: PC-3 (prostate cancer); test: as above; type: cell-based; conditions: Homo sapiens, PC-3, 72 h; for IC50: read-out: IC50; for IC90: read-out: IC90
Protocol: as §4, §2, §5

[11] = test system: SK-OV-3 (ovarian cancer cell); test: as above; type: cell-based; conditions: Homo sapiens, SK-OV-3, 72 h; for IC50: read-out: IC50; for IC90: read-out: IC90
Protocol: as §4, §2, §5

[12] = test system: CNE (nasopharyngeal carcinoma cell); test: as above; type: cell-based; conditions: Homo sapiens; for IC50: read-out: IC50; for IC90: read-out: IC90
Protocol: as §4, §2, §5

[13] = test system: MG63 (osteosarcoma); test: as above; type: cell-based; conditions: Homo sapiens, MG-63, 72 h; for IC50: read-out: IC50; for IC90: read-out: IC90
Protocol: as §4, §2, §5

[14] = test system: RKO (human colon adenocarcinoma cell); test: as above; type: cell-based; conditions: Homo sapiens; for IC50: read-out: IC50; for IC90: read-out: IC90
Protocol: as §4, §2, §5

[15] = test system: MGC 803 (human gastric cancer cell); test: as above; type: cell-based; conditions: Homo sapiens, MGC-803, 72 h; for IC50: read-out: IC50; for IC90: read-out: IC90
Protocol: as §4, §2, §5

[16] = test system: PANC-1 (pancreatic cancer); test: as above; type: cell-based; conditions: Homo sapiens, PANC-1, 72 h; for IC50: read-out: IC50; for IC90: read-out: IC90
Protocol: as §4, §2, §5

[17] = test system: CaES-17 (esophageal cancer cell); test: as above; type: cell-based; conditions: Homo sapiens, CaEs17, CaEs-17, 72 h; for IC50: read-out: IC50; for IC90: read-out: IC90
Protocol: as §4, §2, §5

[18] = test system: Hela (human cervical cancer cell); test: as above; type: cell-based; conditions: Homo sapiens, HeLa, 72 h; for IC50: read-out: IC50; for IC90: read-out: IC90
Protocol: as §4, §2, §5

[19] = test system: Becap37 (human breast cancer cell); test: as above; type: cell-based; conditions: Homo sapiens, Becap-37, 72 h; for IC50: read-out: IC50; for IC90: read-out: IC90
Protocol: as §4, §2, §5

[20] = test system: RPMI8226 (multiple myeloma); test: MTT growth inhibition of multiple myeloma cells, 72 h; type: cell-based, human; conditions: Homo sapiens, RPMI 8226, 72 h; for IC50: read-out: IC50; for IC90: read-out: IC90
Protocol: Myeloma cell lines: RPMI8226 (multiple myeloma), purchased from Fuxiang Bio-tech Co. Ltd., Shanghai, China.
as §2
Obtaining 6000 well-growing myeloma cells as above and inoculating them into wells of a 96-well cell culture plate. The culture medium is the 1640 cell culture medium containing 10% fetal bovine serum. After adding the 2-aminated methylene or 2-esterified methylene tanshinone I derivatives of different concentrations and mixing uniformly, placing the plate in a carbon dioxide cell incubator (5% CO2) at 37° C. and incubated for 72 hours. Then the viable cell concentration is determined by MTT method.

SMILES | IC50 [1] | IC90 [1] | IC50 [2] | IC90 [2] | IC50 [3] | IC90 [3] | IC50 [4] | IC90 [4] | IC50 [5] | IC90 [5] | IC50 [6] | IC90 [6] | IC50 [7] | IC90 [7] | IC50 [8] | IC90 [8] | IC50 [9] | IC90 [9] | IC50 [10] | IC90 [10] | other results
CC[N+](C)(Cc1ccc(F)c(Cl)c1)Cc1oc2c(c1C)C(=O)C(=O)c1c-2ccc2c(C)cccc12 (stereo not drawn) [BS-TA-50] | 6.25 µg/mL | 15.9 µg/mL | 11.2 µg/mL | > 16 µg/mL | 0.99 µg/mL | 7 µg/mL | 4.79 µg/mL | > 16 µg/mL | 5.03 µg/mL | > 16 µg/mL | 13.7 µg/mL | > 16 µg/mL | > 16 µg/mL | > 16 µg/mL | 4.67 µg/mL | > 16 µg/mL | 8.9 µg/mL | > 16 µg/mL | 10.7 µg/mL | > 16 µg/mL | IC50 [11]: > 16 µg/mL; IC90 [11]: > 16 µg/mL; IC50 [12]: 3.87 µg/mL; IC90 [12]: > 16 µg/mL; IC50 [13]: 1.67 µg/mL; IC90 [13]: > 16 µg/mL; IC50 [14]: 2.5 µg/mL; IC90 [14]: > 16 µg/mL; IC50 [15]: 8.91 µg/mL; IC90 [15]: > 16 µg/mL; IC50 [16]: 4.24 µg/mL; IC90 [16]: > 16 µg/mL; IC50 [17]: 8.45 µg/mL; IC90 [17]: > 16 µg/mL; IC50 [18]: 7.78 µg/mL; IC90 [18]: > 16 µg/mL; IC50 [19]: 8.1 µg/mL; IC90 [19]: > 16 µg/mL; IC50 [20]: 3.86 µg/mL; IC90 [20]: 16 µg/mL
Cc1c(C[N+](C)(CCO)Cc2ccc(F)c(Cl)c2)oc2c1C(=O)C(=O)c1c-2ccc2c(C)cccc12 (stereo not drawn) [BS-TA-60] | 1.4 µg/mL | 4 µg/mL | 1.36 µg/mL | 5.12 µg/mL | 0.9 µg/mL | 2.98 µg/mL | 1.28 µg/mL | 3.99 µg/mL | 1.61 µg/mL | 3.86 µg/mL | 1.79 µg/mL | 7.41 µg/mL | 2.5 µg/mL | 5.97 µg/mL | 0.36 µg/mL | 18.8 µg/mL | 3.78 µg/mL | 9.78 µg/mL | 5.03 µg/mL | 10.8 µg/mL | IC50 [11]: 9.78 µg/mL; IC90 [11]: 22.7 µg/mL; IC50 [12]: 3.2 µg/mL; IC90 [12]: 7.2 µg/mL; IC50 [13]: 1.24 µg/mL; IC90 [13]: 5.23 µg/mL; IC50 [14]: 0.52 µg/mL; IC90 [14]: 1.88 µg/mL; IC50 [15]: 2.9 µg/mL; IC90 [15]: 5.4 µg/mL; IC50 [16]: 1.74 µg/mL; IC90 [16]: 3.58 µg/mL; IC50 [17]: 3.58 µg/mL; IC90 [17]: 7.74 µg/mL; IC50 [18]: 3.32 µg/mL; IC90 [18]: 7.35 µg/mL; IC50 [19]: 1.88 µg/mL; IC90 [19]: 3.67 µg/mL; IC50 [20]: 2 µg/mL; IC90 [20]: 7.64 µg/mL
CC(=O)OCCN(C)Cc1oc2c(c1C)C(=O)C(=O)c1c-2ccc2c(C)cccc12 [BS-TA-61] | 0.57 µg/mL (≈ 1.41 µM) | 0.9 µg/mL (≈ 2.22 µM) | 0.61 µg/mL (≈ 1.5 µM) | 1.61 µg/mL (≈ 3.97 µM) | 0.73 µg/mL (≈ 1.8 µM) | 1.9 µg/mL (≈ 4.69 µM) | 0.56 µg/mL (≈ 1.38 µM) | 0.99 µg/mL (≈ 2.44 µM) | 0.31 µg/mL (≈ 0.765 µM) | 1.28 µg/mL (≈ 3.16 µM) | 0.84 µg/mL (≈ 2.07 µM) | 2.52 µg/mL (≈ 6.22 µM) | 2.95 µg/mL (≈ 7.28 µM) | 9.75 µg/mL (≈ 24 µM) | 2.59 µg/mL (≈ 6.39 µM) | 3.87 µg/mL (≈ 9.54 µM) | 2.76 µg/mL (≈ 6.81 µM) | 6.41 µg/mL (≈ 15.8 µM) | 2.65 µg/mL (≈ 6.54 µM) | 6.49 µg/mL (≈ 16 µM) | IC50 [11]: 5.83 µg/mL (≈ 14.4 µM); IC90 [11]: 9.47 µg/mL (≈ 23.4 µM); IC50 [12]: 2.8 µg/mL (≈ 6.91 µM); IC90 [12]: 7.2 µg/mL (≈ 17.8 µM); IC50 [13]: 2.34 µg/mL (≈ 5.77 µM); IC90 [13]: 6.79 µg/mL (≈ 16.7 µM); IC50 [14]: 0.46 µg/mL (≈ 1.13 µM); IC90 [14]: 6.98 µg/mL (≈ 17.2 µM); IC50 [15]: 2.47 µg/mL (≈ 6.09 µM); IC90 [15]: 8.33 µg/mL (≈ 20.5 µM); IC50 [16]: 0.74 µg/mL (≈ 1.83 µM); IC90 [16]: 4.95 µg/mL (≈ 12.2 µM); IC50 [17]: 3 µg/mL (≈ 7.4 µM); IC90 [17]: 5.07 µg/mL (≈ 12.5 µM); IC50 [18]: 1.49 µg/mL (≈ 3.67 µM); IC90 [18]: 4 µg/mL (≈ 9.87 µM); IC50 [19]: 2.54 µg/mL (≈ 6.26 µM); IC90 [19]: 4.92 µg/mL (≈ 12.1 µM); IC50 [20]: 1.82 µg/mL (≈ 4.49 µM); IC90 [20]: 3.92 µg/mL (≈ 9.67 µM)
